Experimental data published in US5672715A, “Herbicidal substituted 3-aryl-pyrazoles” (Monsanto Company, priority 1995, dated 1997).
Where “and” joins values, the source holds several entries; their conditions need not be identical. Equal values may be shown once.

Experiments:
Format in all cases: in vivo
Barnyardgrass [1] = test: pre-emergence herbicide test; conditions: 0.25 lb/A; for inhibition at 280.212 g/ha: Echinochloa crus-galli, pre-emergence, read-out: % plant inhibition
Summary of the method: (§1)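 Seeds were sown on compacted topsoil in pans and covered with a topsoil layer carrying a known amount of active ingredient in acetone or water, applied before or after covering. Pans were bottom-watered on a greenhouse bench, and % inhibition was scored about 14 days after seeding and treatment.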

Bedstraw Catchweed [2] = test: pre-emergence herbicide test; conditions: Galium aparine, pre-emergence, 0.25 lb/A; read-out: % plant inhibition
Summary of the method: as §1

Birdseye Speedwell [3] = test: pre-emergence herbicide test; conditions: pre-emergence, 0.25 lb/A; read-out: % plant inhibition
Summary of the method: as §1

Blackgrass [4] = test: pre-emergence herbicide test; conditions: Alopecurus myosuroides, pre-emergence, 0.25 lb/A; read-out: % plant inhibition
Summary of the method: as §1

Cocklebur [5] = test: pre-emergence herbicide test; conditions: 0.25 lb/A; for inhibition at 280.212 g/ha: Xanthium strumarium, pre-emergence, read-out: % plant inhibition
Summary of the method: as §1

Common Chickweed [6] = test: pre-emergence herbicide test; conditions: pre-emergence, 0.25 lb/A; read-out: % plant inhibition
Summary of the method: as §1

Corn [7] = test: pre-emergence herbicide test; conditions: 0.25 lb/A; for inhibition at 280.212 g/ha: Zea mays, pre-emergence, read-out: % plant inhibition
Summary of the method: as §1

Downy Brome [8] = test: pre-emergence herbicide test; conditions: Bromus tectorum, pre-emergence, 0.25 lb/A; read-out: % plant inhibition
Summary of the method: as §1

Giant Foxtail [9] = test: pre-emergence herbicide test; conditions: Setaria faberi, pre-emergence, 0.25 lb/A; read-out: % plant inhibition
Summary of the method: as §1

Green Foxtail [10] = test: pre-emergence herbicide test; conditions: Setaria viridis, pre-emergence; 0.25 lb/A; read-out: % plant inhibition
Summary of the method: as §1

Morning Glory [11] = test: pre-emergence herbicide test; conditions: 0.25 lb/A; for inhibition at 280.212 g/ha: Ipomoea, pre-emergence, read-out: % plant inhibition
Summary of the method: as §1

Rape [12] = test: pre-emergence herbicide test; conditions: pre-emergence, 0.25 lb/A; read-out: % plant inhibition
Summary of the method: as §1

Seedling Johnsongrass [13] = test: pre-emergence herbicide test; conditions: Sorghum halepense, pre-emergence, 0.25 lb/A; read-out: % plant inhibition
Summary of the method: as §1

Soybean [14] = test: pre-emergence herbicide test; conditions: Glycine max, pre-emergence, 0.25 lb/A; read-out: % plant inhibition
Summary of the method: as §1

Velvetleaf [15] = test: pre-emergence herbicide test; conditions: 0.25 lb/A; for inhibition at 280.212 g/ha: Abutilon theophrasti, pre-emergence, read-out: % plant inhibition
Summary of the method: as §1

Wheat [16] = test: pre-emergence herbicide test; conditions: Triticum aestivum, pre-emergence, 0.25 lb/A; read-out: % plant inhibition
Summary of the method: as §1

Wild Oats [17] = test: pre-emergence herbicide test; conditions: Avena fatua, pre-emergence, 0.25 lb/A; read-out: % plant inhibition
Summary of the method: as §1

Barnyardgrass [18] = test: post-emergence herbicide test; conditions: Echinochloa crus-galli, post-emergence, 0.25 lb/A; read-out: % plant inhibition
Summary of the method: (§2)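 Percent inhibition of each species scored after post-emergence spraying of two- to three-week-old greenhouse plants. Spray solution carried about 0.4% by volume emulsifier, delivered by atomizer at 170.3 kPa (10 psig) and 1870 L/Ha total volume.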

Bedstraw Catchweed [19] = test: post-emergence herbicide test; conditions: Galium aparine, post-emergence, 0.25 lb/A; read-out: % plant inhibition
Summary of the method: as §2

Birdseye Speedwell [20] = test: post-emergence herbicide test; conditions: post-emergence, 0.25 lb/A; read-out: % plant inhibition
Summary of the method: as §2

Blackgrass [21] = test: post-emergence herbicide test; conditions: Alopecurus myosuroides, post-emergence, 0.25 lb/A; read-out: % plant inhibition
Summary of the method: as §2

Cocklebur [22] = test: post-emergence herbicide test; conditions: Xanthium strumarium, post-emergence, 0.25 lb/A; read-out: % plant inhibition
Summary of the method: as §2

Common Chickweed [23] = test: post-emergence herbicide test; conditions: post-emergence, 0.25 lb/A; read-out: % plant inhibition
Summary of the method: as §2

Corn [24] = test: post-emergence herbicide test; conditions: Zea mays, post-emergence, 0.25 lb/A; read-out: % plant inhibition
Summary of the method: as §2

Downy Brome [25] = test: post-emergence herbicide test; conditions: Bromus tectorum, post-emergence, 0.25 lb/A; read-out: % plant inhibition
Summary of the method: as §2

Giant Foxtail [26] = test: post-emergence herbicide test; conditions: Setaria faberi, post-emergence, 0.25 lb/A; read-out: % plant inhibition
Summary of the method: as §2

Green Foxtail [27] = test: post-emergence herbicide test; conditions: Setaria viridis, post-emergence, 0.25 lb/A; read-out: % plant inhibition
Summary of the method: as §2

Morning Glory [28] = test: post-emergence herbicide test; conditions: Ipomoea, post-emergence, 0.25 lb/A; read-out: % plant inhibition
Summary of the method: as §2

Rape [29] = test: post-emergence herbicide test; conditions: post-emergence, 0.25 lb/A; read-out: % plant inhibition
Summary of the method: as §2

Seedling Johnsongrass [30] = test: post-emergence herbicide test; conditions: Sorghum halepense, post-emergence, 0.25 lb/A; read-out: % plant inhibition
Summary of the method: as §2

Soybean [31] = test: post-emergence herbicide test; conditions: Glycine max, post-emergence, 0.25 lb/A; read-out: % plant inhibition
Summary of the method: as §2

Velvetleaf [32] = test: post-emergence herbicide test; conditions: Abutilon theophrasti, post-emergence, 0.25 lb/A; read-out: % plant inhibition
Summary of the method: as §2

Wheat [33] = test: post-emergence herbicide test; conditions: Triticum aestivum, post-emergence, 0.25 lb/A; read-out: % plant inhibition
Summary of the method: as §2

Wild Oats [34] = test: post-emergence herbicide test; conditions: Avena fatua, post-emergence, 0.25 lb/A; read-out: % plant inhibition
Summary of the method: as §2

SMILES | inhibition at 280.212 g/ha (Barnyardgrass [1]) [%] | inhibition at 280.212 g/ha (Bedstraw Catchweed [2]) [%] | inhibition at 280.212 g/ha (Birdseye Speedwell [3]) [%] | inhibition at 280.212 g/ha (Blackgrass [4]) [%] | inhibition at 280.212 g/ha (Cocklebur [5]) [%] | inhibition at 280.212 g/ha (Common Chickweed [6]) [%] | inhibition at 280.212 g/ha (Corn [7]) [%] | inhibition at 280.212 g/ha (Downy Brome [8]) [%] | inhibition at 280.212 g/ha (Giant Foxtail [9]) [%] | inhibition at 280.212 g/ha (Green Foxtail [10]) [%] | inhibition at 280.212 g/ha (Rape [12]) [%] | inhibition at 280.212 g/ha (Seedling Johnsongrass [13]) [%] | inhibition at 280.212 g/ha (Soybean [14]) [%] | inhibition at 280.212 g/ha (Velvetleaf [15]) [%] | inhibition at 280.212 g/ha (Wheat [16]) [%] | inhibition at 280.212 g/ha (Wild Oats [17]) [%] | inhibition at 280.212 g/ha (Barnyardgrass [18]) [%] | inhibition at 280.212 g/ha (Bedstraw Catchweed [19]) [%] | inhibition at 280.212 g/ha (Birdseye Speedwell [20]) [%] | inhibition at 280.212 g/ha (Blackgrass [21]) [%] | other results
Cc1c(-c2ccc(Cl)cc2)nn(C)c1C(F)(F)F [Compound 7, 3-(4-chlorophenyl)-1,4-dimethyl-5-(trifluoromethyl)pyrazole] | 0 | 5 | 0 | 0 | 0 | 0 | 0 | 0 | 15 | 0 | 0 | 25 | 0 | 0 | 0 | 0 | 0 | 35 | 65 | 5 | inhibition at 280.212 g/ha (Morning Glory [11]): 0%; inhibition at 280.212 g/ha (Cocklebur [22]): 0%; inhibition at 280.212 g/ha (Common Chickweed [23]): 0%; inhibition at 280.212 g/ha (Corn [24]): 0%; inhibition at 280.212 g/ha (Downy Brome [25]): 5%; inhibition at 280.212 g/ha (Giant Foxtail [26]): 0%; inhibition at 280.212 g/ha (Green Foxtail [27]): 20%; inhibition at 280.212 g/ha (Morning Glory [28]): 0%; inhibition at 280.212 g/ha (Rape [29]): 0%; inhibition at 280.212 g/ha (Seedling Johnsongrass [30]): 0%; inhibition at 280.212 g/ha (Soybean [31]): 5%; inhibition at 280.212 g/ha (Velvetleaf [32]): 5%; inhibition at 280.212 g/ha (Wheat [33]): 5%; inhibition at 280.212 g/ha (Wild Oats [34]): 5%
CC(C)OC(=O)c1cc(-c2nn(C)c(C(F)(F)F)c2C(F)F)c(F)cc1Cl [Compound 13, 2-Chloro-5-[4-(difluoromethyl)-1-methyl-5-(trifluoromethyl)-1H-pyrazol-3-yl]-4-fluorobenzoic acid, 1-methylethyl ester] | 100 | 100 | 90 | 98 | 70 | 90 | 80 | 100 | 100 | 100 | 65 | 100 | 30 | 100 | 3 | 95 | 90 | 100 | 100 | 95 | % plant inhibition (Barnyardgrass [1]): 99%; % plant inhibition (Cocklebur [5]): 75%; % plant inhibition (Corn [7]): 65%; % plant inhibition (Morning Glory [11]): 50% and 93%; % plant inhibition (Velvetleaf [15]): 98%; inhibition at 280.212 g/ha (Cocklebur [22]): 95%; inhibition at 280.212 g/ha (Common Chickweed [23]): 98%; inhibition at 280.212 g/ha (Corn [24]): 55%; inhibition at 280.212 g/ha (Downy Brome [25]): 90%; inhibition at 280.212 g/ha (Giant Foxtail [26]): 95%; inhibition at 280.212 g/ha (Green Foxtail [27]): 100%; inhibition at 280.212 g/ha (Morning Glory [28]): 98%; inhibition at 280.212 g/ha (Rape [29]): 100%; inhibition at 280.212 g/ha (Seedling Johnsongrass [30]): 100%; inhibition at 280.212 g/ha (Soybean [31]): 90%; inhibition at 280.212 g/ha (Velvetleaf [32]): 100%; inhibition at 280.212 g/ha (Wheat [33]): 20%; inhibition at 280.212 g/ha (Wild Oats [34]): 90%
CC(C)OC(=O)c1cc(-c2nn(C)c(C(F)(F)F)c2CO)c(F)cc1Cl [Compound 14, 2-Chloro-4-fluoro-5-[4-(hydroxymethyl)-1-methyl-5-(trifluoromethyl)-1H-pyrazol-3-yl]benzoic acid, 1-methylethyl ester] | 90 | 20 | 98 | 65 | 15 | 98 | 15 | 30 | 98 | 100 | 5 | 97 | 8 | 60 | 2 | 50 | 65 | 40 | 90 | 60 | inhibition at 280.212 g/ha (Morning Glory [11]): 40%; inhibition at 280.212 g/ha (Cocklebur [22]): 95%; inhibition at 280.212 g/ha (Common Chickweed [23]): 45%; inhibition at 280.212 g/ha (Corn [24]): 10%; inhibition at 280.212 g/ha (Downy Brome [25]): 60%; inhibition at 280.212 g/ha (Giant Foxtail [26]): 25%; inhibition at 280.212 g/ha (Green Foxtail [27]): 65%; inhibition at 280.212 g/ha (Morning Glory [28]): 85%; inhibition at 280.212 g/ha (Rape [29]): 75%; inhibition at 280.212 g/ha (Seedling Johnsongrass [30]): 80%; inhibition at 280.212 g/ha (Soybean [31]): 25%; inhibition at 280.212 g/ha (Velvetleaf [32]): 99%; inhibition at 280.212 g/ha (Wheat [33]): 13%; inhibition at 280.212 g/ha (Wild Oats [34]): 50%
CC(C)OC(=O)c1cc(-c2nn(C)c(C(F)(F)F)c2CF)c(F)cc1Cl [Compound 15, 2-Chloro-4-fluoro-5-[4-(fluoromethyl)-1-methyl-5-(trifluoromethyl)-1H-pyrazol-3-yl]benzoic acid, 1-methylethyl ester] | 100 | 98 | 100 | 100 | 90 | 100 | 93 | 100 | 100 | 100 | 60 | 100 | 20 | 97 | 0 | 90 | 99 | 100 | 100 | 100 | inhibition at 280.212 g/ha (Morning Glory [11]): 93%; inhibition at 280.212 g/ha (Cocklebur [22]): 99%; inhibition at 280.212 g/ha (Common Chickweed [23]): 100%; inhibition at 280.212 g/ha (Corn [24]): 65%; inhibition at 280.212 g/ha (Downy Brome [25]): 100%; inhibition at 280.212 g/ha (Giant Foxtail [26]): 90%; inhibition at 280.212 g/ha (Green Foxtail [27]): 100%; inhibition at 280.212 g/ha (Morning Glory [28]): 98%; inhibition at 280.212 g/ha (Rape [29]): 100%; inhibition at 280.212 g/ha (Seedling Johnsongrass [30]): 100%; inhibition at 280.212 g/ha (Soybean [31]): 90%; inhibition at 280.212 g/ha (Velvetleaf [32]): 100%; inhibition at 280.212 g/ha (Wheat [33]): 20%; inhibition at 280.212 g/ha (Wild Oats [34]): 100%
